According to patent publication US20240123012A1 (priority 2021, published 2024):

Biological target: human recombinant DHODH (rhDHODH) (Homo sapiens, UniProt Q02127)
Assay: Inhibition of the activity of rh DHODH on its colorimetric substrate (OD at 600 nm)
Assay type: biochemical
Procedure: This mother tincture constitutes the sample to be tested. The measurement of the inhibition of the action of DHODH on its substrate is carried out in a conventional multi-well plate with a transparent wall. The wells contain the samples to be tested, the DHODH and its substrate.
To evaluate the inhibition of the DHODH by the sample, the parameter of the optical density called “OD” is used. Indeed, in each well, the “OD” is measured at a wavelength of 600 nm, at several time intervals, for a duration of 5 min.
More specifically, each well comprises the diluted or non-diluted sample, the enzyme of the DHODH and its colorimetric substrate diluted in a test buffer. Said colorimetric substrate comprises DHO which can be converted into ORO by action of the DHODH.
Over time, the consumption of the colorimetric substrate DHO by the enzyme DHODH results in a reduction in the OD. This decrease indicates the conversion of the colored DHO into uncolored ORO by the activity of the DHODH. In other words, the DHO is consumed, […] to ORO by the activity of the DHODH, which causes a modification of the OD measured.
In the event of inhibition of the activity of the DHODH by the sample, the OD remains stable over time. Indeed, in the case of inhibition, the colorimetric DHO substrate will not be transformed by the DHODH into ORO, the OD therefore will remain that of the initial DHO.
To carry out the experiments, the following were used: • a solution of class 1 enzyme called “rhDHODH” for “human recombinant DHODH”, • a test buffer consisting of 50 mM Tris, 150 mM KCl and 0.1% Triton® X-100, at pH 8, • a substrate mixture of DHODH containing: 2 mM of L-dihydroorotic called “DHO”, 0.2 mM of decylubiquinone called “Q” and 0.12 mM of 2,6-Dichloroindophenol sodium salt hydrate called “DP IP” in the test buffer, • a mother tincture sample of a leaf extract of a Neurolaena lobata plant, diluted or not, in a dilution buffer consisting of dimethyl sulfoxide called “DMSO”.
To start the protocol, each dilution of the sample H1 or H2 was placed in the presence of the rh DHODH enzyme and the mixture of substrate within a well. In order to obtain an average of OD measured for a sample concentration H1 or H2, triplicates were carried out for each of the dilution concentrations of H1 and H2.
The amount of enzyme added in each well is the same. In the protocol, the enzyme is added to the well so as to have a concentration of 0.06 μg of rh DHODH enzyme/mL of total solution in the well.
% of activity=(ΔH1×100)/Δ of the negative control.
The % of inhibition is calculated by the following formula: 100—the value of the % of activity.

human recombinant DHODH (rhDHODH), sequence (Q02127 whole entry): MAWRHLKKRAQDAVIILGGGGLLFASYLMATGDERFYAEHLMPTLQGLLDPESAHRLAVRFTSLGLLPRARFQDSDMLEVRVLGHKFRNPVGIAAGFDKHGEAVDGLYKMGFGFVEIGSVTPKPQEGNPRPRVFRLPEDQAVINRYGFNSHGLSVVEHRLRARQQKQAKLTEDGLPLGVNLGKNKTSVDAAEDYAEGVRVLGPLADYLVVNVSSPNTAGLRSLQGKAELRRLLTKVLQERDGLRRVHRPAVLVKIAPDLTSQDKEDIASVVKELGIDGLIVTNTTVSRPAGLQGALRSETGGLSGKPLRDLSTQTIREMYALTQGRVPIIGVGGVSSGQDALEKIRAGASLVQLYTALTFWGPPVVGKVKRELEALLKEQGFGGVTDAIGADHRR

`Cc1c(-c2ccc(-c3ccccc3F)cc2)nc2ccc(F)cc2c1C(=O)O` [brequinar] was tested, and the activity at 0.001 µg/mL was 6.25%, the activity at 0.01 µg/mL was 7.21% and the activity at 0.1 µg/mL was 0%. The activity at 1 µg/mL was 0%, the “Δ (OD at 0 s minus OD at 275 s)” value (0.001 μg/mL) was 0.013 and the inhibition at 0.001 µg/mL (0.001 μg/mL, 0-275 s) was 93.8%. For the same compound, the “OD at 600 nm” value (0.001 μg/mL, 0 s) was 0.339, the “OD at 600 nm” value (0.001 μg/mL, 55 s) was 0.340 and the “OD at 600 nm” value (0.001 μg/mL, 110 s) was 0.333. The “OD at 600 nm” value (0.001 μg/mL, 165 s) was 0.331, the “OD at 600 nm” value (0.001 μg/mL, 220 s) was 0.328 and the “OD at 600 nm” value (0.001 μg/mL, 275 s) was 0.326. The “Δ (OD at 0 s minus OD at 275 s)” value (0.01 μg/mL) was 0.015, the inhibition at 0.01 µg/mL (0.01 μg/mL, 0-275 s) was 92.8% and the “OD at 600 nm” value (0.01 μg/mL, 0 s) was 0.344. The “OD at 600 nm” value (0.01 μg/mL, 55 s) was 0.345, the “OD at 600 nm” value (0.01 μg/mL, 110 s) was 0.339 and the “OD at 600 nm” value (0.01 μg/mL, 165 s) was 0.336. The “OD at 600 nm” value (0.01 μg/mL, 220 s) was 0.348, the “OD at 600 nm” value (0.01 μg/mL, 275 s) was 0.329 and the “Δ (OD at 0 s minus OD at 275 s)” value (0.1 μg/mL) was 0.000. For the same compound, the inhibition at 0.1 µg/mL (0.1 μg/mL, 0-275 s) was 100%, the “OD at 600 nm” value (0.1 μg/mL, 0 s) was 0.349 and the “OD at 600 nm” value (0.1 μg/mL, 55 s) was 0.348. The “OD at 600 nm” value (0.1 μg/mL, 110 s) was 0.353, the “OD at 600 nm” value (0.1 μg/mL, 165 s) was 0.345 and the “OD at 600 nm” value (0.1 μg/mL, 220 s) was 0.350. The “OD at 600 nm” value (0.1 μg/mL, 275 s) was 0.349, the “Δ (OD at 0 s minus OD at 275 s)” value (1 μg/mL) was 0.001 and the inhibition at 1 µg/mL (1 μg/mL, 0-275 s) was 100%. For the same compound, the “OD at 600 nm” value (1 μg/mL, 0 s) was 0.354, the “OD at 600 nm” value (1 μg/mL, 55 s) was 0.354 and the “OD at 600 nm” value (1 μg/mL, 110 s) was 0.352. The “OD at 600 nm” value (1 μg/mL, 165 s) was 0.361, the “OD at 600 nm” value (1 μg/mL, 220 s) was 0.357 and the “OD at 600 nm” value (1 μg/mL, 275 s) was 0.353.
